{"source": "patent US11254640B2", "about": "“N-substituted indoles and other heterocycles for treating brain disorders” (The Regents of the University of California, priority 2019, dated 2022)", "key": {"[1]": {"system": "cortical neurons", "assay": "Dendritogenesis assay, Sholl analysis", "assay_type": "cell-based, rat", "conditions": "10 μM; for Emax at 10 µM: Rattus norvegicus, Cortical neurone, Nmax with vehicle (DMSO) = 0% and ketamine = 100%, read-out: % efficacy in sholls; for dendritic arbor complexity / neuronal growth (Nmax of Sholl plots): cortical neurons", "text": "Dendritogenesis Assays. Phenotypic screening has historically proven more successful than target-based approaches for identifying drugs with novel mechanisms of action. Having established a simple and robust method for accessing isoDMT analogs, tested next was their ability to increase dendritic arbor complexity in cultures of cortical neurons using a phenotypic assay. Following treatment, neurons were fixed and visualized using an antibody against MAP2—a cytoskeletal protein localized to the somatodendritic compartment of neurons. Sholl analysis was then performed, and the maximum number of crossings (Nmax) was used as a quantitative metric of dendritic arbor complexity. For statistical comparisons between specific compounds, the raw Nmax values were compared. Percent efficacies were determined by setting the Nmax values for the vehicle (DMSO) and positive (ketamine) controls equal to 0% and 100%, respectively.\n(§1) Animals. For the dendritogenesis experiments, timed pregnant Sprague Dawley rats were obtained from Charles River Laboratories (Wilmington, Mass.). For the head-twitch response assay, male and female C57BL/6J mice were obtained from Jackson Laboratory (Sacramento, Calif.). Mice were housed in a temperature and humidity-controlled room maintained on a 12-h light/dark cycle in groups of 4-5 (same sex). Animals weighed between 17 and 30 g at the time of the experiments. All experimental procedures involving rodents were approved by the UC Davis Institutional Animal Care and Use Committee (IACUC) and adhered to principles described in the National Institutes of Health Guide for the Care and Use of Laboratory Animals. The University of California, Davis and the University of California, San Francisco are accredited by the Association for Assessment and Accreditation of Laboratory Animal Care International (AAALAC).\nDendritogenesis—Sholl Analysis. Dendritogenesis experiments were performed following a previously published method with slight modifications. Neurons were plated in 96-well format (200 μL of media per well) at a density of approximately 15,000 cells/well in Neurobasal (Life Technologies) containing 1% penicillin-streptomycin, 10% heat-inactivated fetal bovine serum, and 0.5 mM glutamine. After 24 h, the medium was replaced with Neurobasal containing 1× B27 supplement (Life Technologies), 1% penicillin-streptomycin, 0.5 mM glutamine, and 12.5 μM glutamate. After 3 days in vitro (DIV3), the cells were treated with compounds. All compounds tested in the dendritogenesis assays were treated at 10 μM unless noted otherwise. Stock solutions of the compounds in DMSO were first diluted 100-fold in Neurobasal before an additional 10-fold dilution into each well (total dilution=1:1000; 0.1% DMSO concentration). Treatments were randomized. After 1 h, the media was removed and replaced with new Neurobasal media containing 1× B27 supplement, 1% penicillin-streptomycin, 0.5 mM glutamine, and 12.5 μM glutamate. The cells were allowed to grow for an additional 71 h. At that time, neurons were fixed by removing 80% of the media and replacing it with a volume of 4% aqueous paraformaldehyde (Alfa Aesar) equal to 50% of the working volume of the well. Then, the cells were incubated at room temperature for 20 min before the fixative was aspirated and each well washed twice with DPBS. Cells were permeabilized using 0.2% Triton X-100 (ThermoFisher) in DPBS for 20 minutes at room temperature without shaking. Plates were blocked with antibody diluting buffer (ADB) containing 2% bovine serum albumin (BSA) in DPBS for 1 h at room temperature. Then, plates were incubated overnight at 4° C. with gentle shaking in ADB containing a chicken anti-MAP2 antibody (1:10,000; EnCor, CPCA-MAP2). The next day, plates were washed three times with DPBS and once with 2% ADB in DPBS. […]"}, "[2]": {"system": "C57BL/6J mice", "assay": "Head twitch response (HTR) assay", "assay_type": "in vivo, mouse", "conditions": "intraperitoneal injection, head-twitches over 20 mins (FIG. 8, FIG. 9)", "text": "as §1\nHead twitch response experiments. Mice (9-10 weeks old) were injected intraperitoneally with compound (injection volume 5 ml/kg), placed in an empty cage, and filmed for 20 minutes. Cages were cleaned with 70% ethanol between experiments."}, "[3]": {"system": "5HT2A sensor", "assay": "5HT2A sensor assay, agonist mode (sLight1.3s HEK293T stable line)", "assay_type": "cell-based", "conditions": "for activation of 5HT2A sensor assay in agonist mode at 10 μM: 10 μM of compound (FIG. 11); for activation of 5HT2A sensor assay in agonist mode (dose response): dose response (FIG. 10)", "how_it_was_run": "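Fluorescence change, dFF=(Fsat−Fapo)/Fapo, was taken from membrane images (460 nm excitation) before and after compound addition and scaled as % activation, with the DMSO mean as 0 and the 5HT mean as 100. The cells were sLight1.3s HEK293T in HBSS. Final compound levels were 100 μM, 10 μM and 100 nM in 0.1% DMSO, in triplicate.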"}, "[4]": {"system": "cortical neurons", "assay": "Ketanserin blocking experiments (dendritogenesis)", "assay_type": "cell-based, rat", "conditions": "ketanserin 10 μM, drug 1 μM (FIG. 7)", "protocol": "Ketanserin Blocking Experiments. For the ketaserin blocking experiments (FIG. 7), a slightly modified method was employed. On DIV 3, neurons were first treated with ketanserin (10 μM) for 1 h followed by a 1 h incubation with drug (1 μM) and ketanserin (10 μM) (final concentration of DMSO=0.2%). After 1 h, the media was removed and replaced with new Neurobasal media containing 1× B27 supplement, 1% penicillin-streptomycin, 0.5 mM glutamine, and 12.5 μM glutamate. The cells were allowed to grow for an additional 71 h before being fixed, stained, and imaged."}, "[5]": {"system": "rats", "conditions": "rats trained to discriminate DOM from saline; cited from earlier work"}, "[6]": {"system": "5HT2A sensor", "assay": "5HT2A sensor assay, antagonist mode (sLight1.3s HEK293T stable line)", "assay_type": "cell-based", "conditions": "dose response (FIG. 12A, FIG. 12B)", "how_it_was_run": "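Inactivation score is computed from membrane dFF as (dFF(compound+5HT)−dFF(5HT))/dFF(5HT), with HBSS-only fluorescence as Fapo. Final concentrations: 5-HT 100 nM added first, then compound at 100 nM, 10 μM or 100 μM in 0.1% DMSO. Triplicates; FITC imaging, 5 fields per well.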"}, "[7]": {"system": "C57/BL6J mice", "assay": "Forced swim test (FST)", "assay_type": "in vivo, mouse", "conditions": "24 h after drug administration; i.p., compounds 20 mg/kg, ketamine 3 mg/kg", "protocol": "Forced Swim Test. As increased cortical structural plasticity in the anterior parts of the brain mediates the sustained (>24 h) antidepressant-like effects of ketamine and play a role in the therapeutic effects of 5-HT2A agonists, the impact of IsoDMT analogs on forced swim test (FST) behavior (FIG. 14A and FIG. 14B) was evaluated. First, a pretest was used to induce a depressive phenotype. Compounds were administered 24 h after the pre-test, and the FST was performed 24 h and 7 d post drug administration.\nForced Swim Test (FST). Male C57/BL6J mice (9-10 weeks old at time of experiment) were obtained from the Jackson Lab and housed 4-5 mice/cage in a UCD vivarium following an IACUC approved protocol. After 1 week in the vivarium each mouse was handled for approximately 1 minute by a experimenter for 3 consecutive days leading up to the first FST. […] Immobility scores for all mice were determined after the pre-test and mice were randomly assigned to treatment groups to generate groups with similar average immobility scores to be used for the following two FST sessions. […] Experiments were video-recorded and manually scored offline. Immobility time—defined as passive floating or remaining motionless with no activity other than that needed to keep the mouse's head above water—was scored for the last 4 min of the 6 min trial."}}, "data": [{"smiles": "CN(C)CCCn1ccc2ccccc21.O=C(O)/C=C/C(=O)O", "note": "[Example 26, 3-(1H-indol-1-yl)-N,N-dimethylpropan-1-amine]", "values": [{"measurement": "melting point", "value": "129 to 131", "unit": "°C"}, {"measurement": "Emax at 10 µM", "setting": "[1]", "value": 70, "unit": "%"}, {"measurement": "dendritic arbor complexity / neuronal growth (Nmax of Sholl plots)", "setting": "[1]", "value": "only a slight decrease in the Nmax value"}]}, {"smiles": "COc1ccc2[nH]cc(CCN(C)C)c2c1", "note": "[Example 28, 2-(5-methoxy-1H-indol-3-yl)-N,N-dimethylethan-1-amine, reference compound]", "values": [{"measurement": "head-twitch response (hallucinogenic potential)", "setting": "[2]", "value": "robust, dose-dependent HTR"}, {"measurement": "activation of 5HT2A sensor assay in agonist mode at 10 μM", "setting": "[3]", "value": "activate the 5HT2A sensor assay in agonist mode"}, {"measurement": "activation of 5HT2A sensor assay in agonist mode (dose response)", "setting": "[3]", "value": "activate"}, {"measurement": "effect of 5-HT2A antagonist pretreatment on increase in dendritic growth", "setting": "[4]", "value": "blocked"}, {"measurement": "substitution for hallucinogenic training drug (DOM) in drug discrimination", "setting": "[5]", "value": "substitutes"}, {"measurement": "Emax at 10 µM", "setting": "[1]", "value": 80, "unit": "%"}]}, {"smiles": "COc1ccc2c(CCN(C)C)c[nH]c2c1", "note": "[Example 30, 2-(6-methoxy-1H-indol-3-yl)-N,N-dimethylethan-1-amine, reference compound]", "values": [{"measurement": "head-twitch response (hallucinogenic potential)", "setting": "[2]", "value": "did not produce a HTR"}, {"measurement": "activation of 5HT2A sensor assay in agonist mode at 10 μM", "setting": "[3]", "value": "do not activate the 5HT2A sensor assay in agonist mode"}, {"measurement": "activation of 5HT2A sensor assay in agonist mode (dose response)", "setting": "[3]", "value": "do not"}, {"measurement": "substitution for hallucinogenic training drug (DOM) in drug discrimination", "setting": "[5]", "value": "does not"}, {"measurement": "Emax at 10 µM", "setting": "[1]", "value": 72, "unit": "%"}, {"measurement": "competition with 5-HT in 5HT2A sensor assay, antagonist mode (dose response)", "setting": "[6]", "value": "compete off 5-HT"}]}, {"smiles": "CN(C)C(=O)Cn1ccc2ccccc21", "note": "[Example 31, 2-(1H-indol-1-yl)-N,N-dimethylacetamide]", "values": [{"measurement": "melting point", "value": "58 to 61", "unit": "°C"}, {"measurement": "dendritic arbor complexity / neuronal growth (Nmax of Sholl plots)", "setting": "[1]", "value": "did not promote neuronal growth"}]}, {"smiles": "CNC1(c2ccccc2Cl)CCCCC1=O", "note": "(stereo not drawn) [ketamine, reference compound]", "values": [{"measurement": "immobility in forced swim test", "setting": "[7]", "value": "significantly reduced immobility"}]}]}
